Source: patent US20220002268A1, “NOVEL HETEROARYL-TRIAZOLE AND HETEROARYL-TETRAZOLE COMPOUNDS AS PESTICIDES” (Bayer Aktiengesellschaft, priority 2019, published 2022)
Each block holds one compound with its values, some of them ahead of it.

Assays:
Phaedon cochleariae = Phaedon cochleariae spray test; format: in vivo; details: 168 h, after 7 days
Description: Phaedon cochleariae—Spray Test Solvent: 78.0 parts by weight of acetone • • 1.5 parts by weight of dimethylformamide Emulsifier: alkylarylpolyglycol ether
(§1) To produce a suitable preparation of active compound, 1 part by weight of active compound is mixed with the stated amount of solvents and is diluted with water, containing an emulsifier concentration of 1000 ppm, to the desired concentration. Further test concentrations are prepared by dilution with emulsifier containing water.
Chinese cabbage (Brassica pekinensis) leaf disks are sprayed with a preparation of the active ingredient of the desired concentration. Once dry, the leaf disks are infested with mustard beetle larvae (Phaedon cochleariae).
After 7 days mortality in % is determined. 100% means all beetle larvae have been killed and 0% means none of the beetle larvae have been killed.

Spodoptera frugiperda = Spodoptera frugiperda spray test; format: in vivo; details: 168 h, after 7 days
Description: Suodontera frugiuerda—Spray Test Solvent: 78.0 parts by weight acetone • 1.5 parts by weight dimethylformamide Emulsifier: alkylarylpolyglycol ether
as §1
Maize (Zea mays) leaf sections are sprayed with a preparation of the active ingredient of the desired concentration. Once dry, the leaf sections are infested with fall armyworm larvae (Spodoptera frugiperda).
After 7 days mortality in % is determined. 100% means all caterpillars have been killed and 0% means none of the caterpillars have been killed.

Diabrotica balteata = Diabrotica balteata spray test; format: in vivo; details: 168 h, 160 gg/well, after 7 days, read-out: efficacy (seedlings grown)
Description: Diabrotica balteata—Spray Test Solvent: 78.0 parts by weight of acetone • • 1.5 parts by weight of dimethylformamide Emulsifier: alkylarylpolyglycol ether
as §1, with “solvent,” for “solvents”, “and the concentrate” for “and”
Soaked wheat seeds (Triticum aestivum) are placed in a multiple well plate filled with agar and some water and are incubated for 1 day to germinate (5 seeds per well). The germinated wheat seeds are sprayed with a test solution containing the desired concentration of the active ingredient. Afterwards each unit is infected with 10-20 larvae of the banded cucumber beetle (Diabrotica balteata).
After 7 days efficacy in % is determined. 100% means all the seedlings have grown up like in the untreated, uninfected control; 0% means none of the seedlings have grown.

Boophilus microplus = Boophilus microplus injection test; format: in vivo; details: Rhipicephalus microplus, 168 h; 20 gg/animal, injection into abdomen, after 7 days; read-out: efficacy (infertile eggs)
Description: Boophilus microplus—Injection Test Solvent: dimethyl sulfoxide To produce a suitable preparation of active compound, 10 mg of active compound are dissolved in 0.5 ml solvent, and the concentrate is diluted with solvent to the desired concentration. Five adult engorged female ticks (Boophilus microplus) are injected with 1 μl compound solution into the abdomen. The ticks are transferred into replica plates and incubated in a climate chamber. After 7 days egg deposition of fertile eggs is monitored. Eggs where fertility is not visible are stored in a climate chamber till hatching after about 42 days. An efficacy of 100% means all eggs are infertile; 0% means all eggs are fertile.

Myzus persicae = Myzus persicae oral test; format: in vivo; details: 120 h, after 5 days
Description: Myzus persicae—Oral Test Solvent: 100 parts by weight acetone
(§2) To produce a suitable preparation of active compound, 1 part by weight of active compound is mixed with the stated amount of solvent, and the concentrate is diluted with water to the desired concentration.
50 μl compound solution is filled in microtiter plates and 150 μl IPL41 insect medium (33%+15% sugar) is added to obtain a total volume of 200 μl per well. Afterwards the plates are sealed with parafilm through which a mixed population of the green peach aphid (Myzus persicae) can suck on the compound preparation.
After 5 days mortality in % is determined. 100% means all aphids have been killed and 0% means none of the aphids have been killed.

Ctenocephalides felis = Ctenocephalides felis oral test; format: in vivo; details: 48 h, 100 ppm in cattle blood, after 2 days
Description: Ctenocephalides felis—Oral Test Solvent: dimethyl sulfoxide
To produce a suitable preparation of active compound, 10 mg of active compound are dissolved in 0.5 ml solvent, and the concentrate is diluted with cattle blood to the desired concentration.
Approximately 20 adult unfed cat fleas (Ctenocephalides felis) are placed in flea chambers. The blood chamber, sealed with parafilm on the bottom, are filled with cattle blood supplied with compound solution and placed on the gauze covered top of the flea chamber, so that the fleas are able to suck the blood. The blood chamber is heated to 37° C. whereas the flea chamber is kept at room temperature.
After 2 days mortality in % is determined. 100% means all the fleas have been killed; 0% means none of the fleas have been killed.

Meloidogyne incognita = Meloidogyne incognita test; format: in vivo; details: 20 ppm, after 14 days
Description: Meloidogyne incognita—Test Solvent: 125.0 parts by weight of acetone
as §2
Vessels are filled with sand, a solution of the active ingredient, a suspension containing eggs and larvae of the southern root-knot nematode (Meloidogyne incognita) and salad seeds. The salad seeds germinate and the seedlings grow. Galls develop in the roots.
After 14 days the nematicidal activity is determined on the basis of the percentage of gall formation. 100% means no galls were found and 0% means the number of galls found on the roots of the treated plants was equal to that in untreated control plants.

Nilaparvata lugens = Nilaparvata lugens spray test; format: in vivo; details: 96 h, after 4 days
Description: Nilaparvata lugens—Spray Test Solvent: 78.0 parts by weight of acetone • • 1.5 parts by weight of dimethylformamide Emulsifier: alkylarylpolyglycol ether
as §1
Rice plants (Oryza sativa) are sprayed with a preparation of the active ingredient of the desired concentration and the plants are infested with the brown planthopper (Nilaparvata lugens).
After 4 days mortality in % is determined. 100% means all planthoppers have been killed and 0% means none of the planthoppers have been killed.

Nezara viridula = Nezara viridula spray test; format: in vivo; details: 96 h, after 4 days
Description: Nezara viridula—Spray Test Solvent: 78.0 parts by weight of acetone • • 1.5 parts by weight of dimethylformamide Emulsifier: alkylarylpolyglycol ether
as §1, with “solvent,” for “solvents”, “and the concentrate” for “and”
Barley plants (Hordeum vulgare) infested with larvae of the southern green stink bug (Nezara viridula) are sprayed with a test solution containing the desired concentration of the active ingredient.
After 4 days mortality in % is determined. 100% means all the stink bugs have been killed; 0% means none of the stink bugs have been killed.

[1] = test system: Aedes aegypti strain MONHEIM; test: Aedes aegypti test (AEDSAE surface treatment & contact assay); format: in vivo; details: surface concentration 20 mg/m^2, 30 minutes exposure, 24 hours after contact, read-out: efficacy (mortality)
Description: Aedes aegyti Test (AEDSAE Surface Treatment & Contact Assay) Solvent: Aceton+2000 ppm rapeseed oil methyl ester (RME)
In order to produce a sufficient, active ingredient containing solution it is necessary to solve the test compound in the solvent-mix (acetone at 2 mg/ml/RME 2000 ppm). This solution is pipetted onto a glazed tile and after evaporation of the acetone, adult mosquitoes of the species Aedes aegypti strain MONHEIM are placed onto the dried surface. The exposure time is 30 minutes.
Mortality in percent (%) is determined 24 hours after contact to the treated surface. 100% mortality means that all tested insects are dead, whereas 0% means that no insect died.

Tetranychus urticae = Tetranychus urticae spray test OP-resistant; format: in vivo; details: 144 h, after 6 days
Description: Tetranychus urticae—Spray Test OP-Resistant Solvent: 78.0 parts by weight acetone • 1.5 parts by weight dimethylformamide Emulsifier: alkylarylpolyglycol ether
as §1
French bean (Phaseolus vulgaris) leaf disks infected with all instars of the two spotted spidermite (Tetranychus urticae), are sprayed with a preparation of the active ingredient of the desired concentration.
After 6 days mortality in % is determined. 100% means all spider mites have been killed and 0% means none of the spider mites have been killed.

[2] = log P by HPLC on reversed phase, acidic range; format: physicochemical; details: reversed phase HPLC column, LC-UV, 0.1% formic acid in water and acetonitrile
Description: (§3) Measurement of log P values was performed according to EEC directive 79/831 Annex V.A8 by HPLC (High Performance Liquid Chromatography) on reversed phase columns with the following methods. […] Calibration was done with straight-chain alkan-2-ones (with 3 to 16 carbon atoms) with known log P values (measurement of log P values using retention times with linear interpolation between successive alkanones). Lambda-max-values were determined using UV-spectra from 200 nm to 400 nm and the peak values of the chromatographic signals.

[3] = log P by HPLC on reversed phase, neutral range; format: physicochemical; details: reversed phase HPLC column, LC-UV, 0.001 molar ammonium acetate solution in water and acetonitrile
Description: as §3, with “methods. Instrument(s): Agilent 1100 LC system, Agilent MSD system, HTS PAL; Waters IClass Acquity UPLC, SQD2 (MS), PDA (UV).” for “methods.”

SMILES: O=C(c1cc(Cl)cc(C(F)(F)F)c1)N(Cc1ncnn1-c1ncccn1)CC1CC1 [Example I-001, 3-Chloro-N-(cyclopropylmethyl)-N-{[1-(pyrimidin-2-yl)-1H-1,2,4-triazol-5-yl]methyl}-5-(trifluoromethyl)benzamide]
mortality at 500 g/ha (Phaedon cochleariae): 100%
mortality at 500 g/ha (Spodoptera frugiperda): 100%
pest or weed control at 160 µg/well (Diabrotica balteata): 100%
pest or weed control at 0.02 mg (Boophilus microplus): 100%
mortality at 20 ppm (Myzus persicae): 100%
mortality at 100 ppm (Ctenocephalides felis): 95%
nematicidal activity (gall formation) (Meloidogyne incognita): 90%

SMILES: O=C(c1cc(C(F)(F)F)cc(C(F)(F)F)c1)N(Cc1ncnn1-c1ncccn1)CC1CC1 [Example I-004]
mortality at 500 g/ha (Phaedon cochleariae): 100%
mortality at 500 g/ha (Spodoptera frugiperda): 100%
pest or weed control at 160 µg/well (Diabrotica balteata): 100%
pest or weed control at 0.02 mg (Boophilus microplus): 100%
mortality at 20 ppm (Myzus persicae): 100%
mortality at 500 g/ha (Nilaparvata lugens): 100%
mortality at 100 ppm (Ctenocephalides felis): 100%
mortality at 500 g/ha (Nezara viridula): 100%
mortality at 20 mg/m2 [1]: 85 to 100%

SMILES: O=C(NC1(c2ncnn2-c2ncccn2)CC1)c1cc(Cl)cc(OC(F)(F)F)c1 [Example I-016]
mortality at 500 g/ha (Tetranychus urticae): 90%

chromatographic logP [2]: 0.83
chromatographic logP [3]: 0.83
SMILES: c1cnc(-n2ncnc2CNCC2CC2)nc1 [a-001, 1-cyclopropyl-N-{[1-(pyrimidin-2-yl)-1H-1,2,4-triazol-5-yl]methyl}methanamine]
